# Measurements taken from patent US11274083B2, “Substituted thiophenyl uracils, salts thereof and the use thereof as herbicidal agents” (Syngenta Crop Protection AG, priority 2017, dated 2022).
# Experiments:
# Format in all cases: in vivo
# [1] = tested on: Digitaria sanguinalis; test: Herbicidal action post-emergence, greenhouse pot test; details: application rate 20 g/ha
# [2] = tested on: Triticum aestivum; test: Crop compatibility post-emergence, greenhouse pot test
# Method: (§1) Seeds of mono- and dicotyledonous weed plants and crop plants were laid out in sandy loam soil in plastic or wood-fiber pots, covered with soil and grown under controlled growth conditions in a greenhouse. 2 to 3 weeks after sowing, the trial plants were treated at the one-leaf stage. The compounds of the invention formulated in the form of wettable powders (WP) or as emulsion concentrates (EC) were then sprayed onto the green parts of the plant as an aqueous suspension or emulsion with addition of 0.5% additive at a water application rate equivalent to 600 L/ha. After the trial plants had stood for about 3 weeks in the greenhouse, under optimal growth conditions, the effect of the preparations was scored visually by comparison with untreated controls. For example, 100% efficacy=plants have died, 0% efficacy=like control plants.
# (§2) Crop plant compatibilities were also scored correspondingly.
# (§3) The effects observed are reported here on selected crop plants by comparison, with the untreated controls (values in %).
# [3] = tested on: Amaranthus retroflexus; test: Herbicidal action post-emergence, greenhouse pot test; details: application rate 20 g/ha
# Method: as §1, with “plants. Tables A1 to A16 below show the efficacies of selected compounds of the general formula (I) according to tables I.1 to I.50 on various harmful plants and an application rate corresponding to 80 g/ha or lower that were obtained by the aforementioned trial method.” for “plants.”
# [4] = tested on: Polygonum convolvulus; test: as above; details: application rate 20 g/ha
# Method: as §1, with “plants. Tables A1 to A16 below show the efficacies of selected compounds of the general formula (I) according to tables I.1 to I.50 on various harmful plants and an application rate corresponding to 80 g/ha or lower that were obtained by the aforementioned trial method.” for “plants.”
# [5] = tested on: Stellaria media; test: as above; details: application rate 20 g/ha
# Method: as §1, with “plants. Tables A1 to A16 below show the efficacies of selected compounds of the general formula (I) according to tables I.1 to I.50 on various harmful plants and an application rate corresponding to 80 g/ha or lower that were obtained by the aforementioned trial method.” for “plants.”
# [6] = tested on: Matricaria inodora; test: as above; details: application rate 20 g/ha
# Method: as §1, with “plants. Tables A1 to A16 below show the efficacies of selected compounds of the general formula (I) according to tables I.1 to I.50 on various harmful plants and an application rate corresponding to 80 g/ha or lower that were obtained by the aforementioned trial method.” for “plants.”
# [7] = tested on: Echinochloa crus-galli; test: as above; details: application rate 20 g/ha
# Method: as §1, with “plants. Tables A1 to A16 below show the efficacies of selected compounds of the general formula (I) according to tables I.1 to I.50 on various harmful plants and an application rate corresponding to 80 g/ha or lower that were obtained by the aforementioned trial method.” for “plants.”
# [8] = tested on: Pharbitis purpurea; test: as above; details: application rate 20 g/ha
# Method: as §1, with “plants. Tables A1 to A16 below show the efficacies of selected compounds of the general formula (I) according to tables I.1 to I.50 on various harmful plants and an application rate corresponding to 80 g/ha or lower that were obtained by the aforementioned trial method.” for “plants.”
# [9] = tested on: Viola tricolor; test: as above; details: application rate 20 g/ha
# Method: as §1, with “plants. Tables A1 to A16 below show the efficacies of selected compounds of the general formula (I) according to tables I.1 to I.50 on various harmful plants and an application rate corresponding to 80 g/ha or lower that were obtained by the aforementioned trial method.” for “plants.”
# [10] = tested on: Abutilon theophrasti; test: as above; details: application rate 20 g/ha
# Method: as §1, with “plants. Tables A1 to A16 below show the efficacies of selected compounds of the general formula (I) according to tables I.1 to I.50 on various harmful plants and an application rate corresponding to 80 g/ha or lower that were obtained by the aforementioned trial method.” for “plants.”
# [11] = tested on: Veronica persica; test: as above; details: application rate 20 g/ha
# Method: as §1, with “plants. Tables A1 to A16 below show the efficacies of selected compounds of the general formula (I) according to tables I.1 to I.50 on various harmful plants and an application rate corresponding to 80 g/ha or lower that were obtained by the aforementioned trial method.” for “plants.”
# [12] = tested on: Alopecurus myosuroides; test: as above; details: application rate 20 g/ha, scored visually after about 3 weeks vs untreated controls
# Method: as §1, with “plants. Tables A1 to A16 below show the efficacies of selected compounds of the general formula (I) according to tables I.1 to I.50 on various harmful plants and an application rate corresponding to 80 g/ha or lower that were obtained by the aforementioned trial method.” for “plants.”
# [13] = tested on: Setaria viridis; test: as above; details: application rate 20 g/ha
# Method: as §1, with “plants. Tables A1 to A16 below show the efficacies of selected compounds of the general formula (I) according to tables I.1 to I.50 on various harmful plants and an application rate corresponding to 80 g/ha or lower that were obtained by the aforementioned trial method.” for “plants.”
# [14] = tested on: Oryza sativa; test: Crop compatibility post-emergence, greenhouse pot test
# Method: as §1, §2, §3
# [15] = tested on: Lolium rigidum; test: Herbicidal action post-emergence, greenhouse pot test; details: application rate 20 g/ha
# Method: as §1, with “plants. Tables A1 to A16 below show the efficacies of selected compounds of the general formula (I) according to tables I.1 to I.50 on various harmful plants and an application rate corresponding to 80 g/ha or lower that were obtained by the aforementioned trial method.” for “plants.”
# [16] = tested on: Zea mays; test: Crop compatibility post-emergence, greenhouse pot test
# Method: as §1, §2, §3
# [17] = tested on: Lolium rigidum; test: Herbicidal action pre-emergence, greenhouse pot test; details: application rate 320 g/ha
# From the text: Seeds of mono- and dicotyledonous weeds and crop plants were laid out in plastic or organic plant pots and covered with soil. The compounds of the invention formulated in the form of wettable powders (WP) or as emulsion concentrates (EC) were then applied to the surface of the covering soil as an aqueous suspension or emulsion with addition of 0.5% additive at a water application rate equivalent to 600 L/ha. After the treatment, the pots were placed in a greenhouse and kept under good growth conditions for the test plants. After about 3 weeks, the efficacy of the preparations was scored visually as a percentage by comparison with untreated controls. For example, 100% efficacy=plants have died. 0% efficacy=like control plants. Tables B1 to B17 below show the efficacies of selected compounds of the general formula (I) according to tables I.1 to I.50 on various harmful plants and an application rate corresponding to 320 g/ha or lower that were obtained by the aforementioned trial method.
Compound,Triticum aestivum (Efficacy in %) ([2]; application rate 5 g/ha) [%],Oryza sativa (Efficacy in %) ([14]; application rate 20 g/ha) [%],Oryza sativa (Efficacy in %) ([14]; application rate 5 g/ha) [%],Zea mays (Efficacy in %) ([16]; application rate 5 g/ha) [%],Triticum aestivum (Efficacy in %) ([2]; application rate 20 g/ha) [%],Zea mays (Efficacy in %) ([16]; application rate 20 g/ha) [%],Digitaria sanguinalis (Efficacy in %) [1] [%],Amaranthus retroflexus (Efficacy in %) [3] [%],Polygonum convolvulus (Efficacy in %) [4] [%],Stellaria media (Efficacy in %) [5] [%],Matricaria inodora (Efficacy in %) [6] [%],Echinochloa crus-galli (Efficacy in %) [7] [%],Pharbitis purpurea (Efficacy in %) [8] [%],Viola tricolor (Efficacy in %) [9] [%],Abutilon theophrasti (Efficacy in %) [10] [%],Veronica persica (Efficacy in %) [11] [%],Alopecurus myosuroides (Efficacy in %) [12] [%],Setaria viridis (Efficacy in %) [13] [%],Lolium rigidum (Efficacy in %) [15] [%],Lolium rigidum (Efficacy in %) [17] [%]
CCN(C)C(=O)CCOC(=O)C(C)Sc1cc(-n2c(=O)cc(C(F)(F)F)n(C)c2=O)c(F)cc1Cl (stereo not shown) [I.1-233],,20,,,,,100,100,100,100,100,100,100,100,100,100,90,100,90,
CCNC(=O)CCOC(=O)C(C)Sc1cc(-n2c(=O)cc(C(F)(F)F)n(C)c2=O)c(F)cc1Cl (stereo not shown) [I.1-153],,,10,,,,100,100,100,100,100,100,100,100,100,100,90,100,80,
CCOC(=O)COC(=O)C(C)Sc1cc(-n2c(=O)cc(C(F)(F)F)n(C)c2=O)c(F)cc1Cl (stereo not shown) [I.1-43],10,,,,,,100,100,100,80,100,100,100,100,100,100,80,100,,
CC(Sc1cc(-n2c(=O)cc(C(F)(F)F)n(C)c2=O)c(F)cc1Cl)C(=O)OCCC(=O)OCC1CC1 (stereo not shown) [I.1-7],,,,,,,,,,,,,,,,,,,,90
CC(Sc1cc(-n2c(=O)cc(C(F)(F)F)n(C)c2=O)c(F)cc1Cl)C(=O)OCCC(=O)OCc1ccccc1 (stereo not shown) [I.1-6],,0,,,0,10,,100,,,,,,100,100,100,,,,
CC(Sc1cc(-n2c(=O)cc(C(F)(F)F)n(C)c2=O)c(F)cc1Cl)C(=O)OCCC(=O)N(C)C (stereo not shown) [I.1-231],20,,10,20,,,100,100,100,100,100,100,100,100,100,100,,100,,

# More lines, main results first:
Triticum aestivum (Efficacy in %) ([2]; application rate 5 g/ha) [%],Oryza sativa (Efficacy in %) ([14]; application rate 20 g/ha) [%],Oryza sativa (Efficacy in %) ([14]; application rate 5 g/ha) [%],Zea mays (Efficacy in %) ([16]; application rate 5 g/ha) [%],Triticum aestivum (Efficacy in %) ([2]; application rate 20 g/ha) [%],Zea mays (Efficacy in %) ([16]; application rate 20 g/ha) [%],Compound,Digitaria sanguinalis (Efficacy in %) [1] [%],Amaranthus retroflexus (Efficacy in %) [3] [%],Polygonum convolvulus (Efficacy in %) [4] [%],Stellaria media (Efficacy in %) [5] [%],Matricaria inodora (Efficacy in %) [6] [%],Echinochloa crus-galli (Efficacy in %) [7] [%],Pharbitis purpurea (Efficacy in %) [8] [%],Viola tricolor (Efficacy in %) [9] [%],Abutilon theophrasti (Efficacy in %) [10] [%],Veronica persica (Efficacy in %) [11] [%],Alopecurus myosuroides (Efficacy in %) [12] [%],Setaria viridis (Efficacy in %) [13] [%],Lolium rigidum (Efficacy in %) [15] [%],Lolium rigidum (Efficacy in %) [17] [%]
20,,,,,,CCOC(=O)CCOC(=O)C(Sc1cc(-n2c(=O)cc(C(F)(F)F)n(C)c2=O)c(F)cc1Cl)C(C)CC (stereo not shown) [I.5-3],80,100,100,100,100,100,100,100,100,100,80,100,,
20,0,,20,,,CCC(Sc1cc(-n2c(=O)cc(C(F)(F)F)n(C)c2=O)c(F)cc1Cl)C(=O)OCC(C)(C)C(=O)OC (stereo not shown) [I.2-32],100,100,100,,100,100,100,100,100,100,80,100,80,
,0,,,0,0,CCCOC(=O)CCOC(=O)C(CC)Sc1cc(-n2c(=O)cc(C(F)(F)F)n(C)c2=O)c(F)cc1Cl (stereo not shown) [I.2-8],100,100,100,100,100,100,100,100,100,100,,100,,
20,,,,,,CCC(C)C(Sc1cc(-n2c(=O)cc(C(F)(F)F)n(C)c2=O)c(F)cc1Cl)C(=O)OCCC(=O)OC (stereo not shown) [I.5-2],80,100,100,100,100,100,100,100,100,100,80,100,,
